This note sets out measurements from ChEMBL document CHEMBL3714762, “Agents and methods for treating ischemic and other diseases” (2012).

Each structure is given as a SMILES string. The source made the active and inactive calls. No cut-off for these calls is given here.

Series [1] is described as follows: Antiproliferative activity against human WERI cells assessed as inhibition of cell proliferation by measuring normalized ratio of propidium iodide uptake at 10 uM by propidium iodide uptake based fluoroskan microplate reader analysis. In kind it is functional.
A short description of series [2]: Antiproliferative activity against human WERI cells assessed as inhibition of cell proliferation at 10 uM by propidium iodide uptake based fluoroskan microplate reader analysis. The class given is functional.
Series [3] can be described thus: Antiproliferative activity against human WERI cells assessed as inhibition of cell proliferation at 5 uM by propidium iodide uptake based fluoroskan microplate reader analysis. In kind it is functional.
A short description of series [4]: Antiproliferative activity against human WERI cells assessed as inhibition of cell proliferation by measuring normalized ratio of propidium iodide uptake at 5 uM by propidium iodide uptake based fluoroskan microplate reader analysis. The class given is functional.
The subject of a further series is Cerebral cortex neuron. The series is described as follows: Neuroprotection in CD1 mouse primary cortical neuron assessed as reduction in stretch injury-induced cell death at 2 to 10 uM dosed 1 hr after injury by propidium iodide straining based. The class given is functional.
For series [5], the species on record is Rattus norvegicus. In words: Neuroprotection in Sprague-Dawley rat model of fluid percussion injury assessed as distance traveled by rotarod performance test relative to untreated control. In kind it is functional, organism-based.
For series [6], the species on record is Rattus norvegicus. In words: Neuroprotection in Sprague-Dawley rat model of fluid percussion injury assessed as activity parameters by rotarod performance test relative to untreated control. The class given is functional, organism-based. Background: The rotarod test checks motor coordination on a turning rod.
The subject of series [7] is Rattus norvegicus. The series is described as follows: Neuroprotection in Sprague-Dawley rat model of fluid percussion injury assessed as reduction in neuronal damage dosed 1 hr after injury by TTC staining based oscilloscopy. In kind it is functional, organism-based.
In series [8] the test system is Rattus norvegicus. The series is described as follows: Neuroprotection in Sprague-Dawley rat model of fluid percussion injury assessed as reduction in neuronal brain damage dosed before injury at 2 to 10 uM by TTC staining based oscilloscopy. The class given is functional, organism-based.
The species named for series [9] is Rattus norvegicus. The series is described as follows: Neuroprotection in Sprague-Dawley rat model of fluid percussion injury assessed as increase in balance by measuring mean latency measured on first day post injury by rotarod performance test relative to untreated control. In kind it is functional.
For series [10], the system named is Rattus norvegicus. The series is described as follows: Neuroprotection in Sprague-Dawley rat model of fluid percussion injury assessed as improvement in learning and memory tasks by measuring latency to reach platform dosed 1 hr after lateral fluid percussion injury by Morris water maze test. In kind it is functional, organism-based.
Series [11] is described as follows: Antiproliferative activity against mouse B16F10 cells assessed as inhibition of cell proliferation at 10 uM incubated for 72 hrs by Cell-titer-Glo cell viability assay. The class given is functional. As to conditions: B16-F10, 72 h.
The nature of series [12]: Selectivity index, ratio of antiproliferative activity against human WI38 cells to antiproliferative activity against mouse B16F10 cells. Also on record: species or system B16-F10.
A short description of series [13]: Selectivity index, ratio of antiproliferative activity against human WI38 cells to antiproliferative activity against human DMS53 cells. Set-up: species or system DMS-53.
Series [14] is described as follows: Antiproliferative activity against human MCF10A cells assessed as inhibition of cell proliferation at 10 uM incubated for 72 hrs by Cell-titer-Glo cell viability assay. The class given is cell-based, MCF-10A.
A short description of series [15]: Selectivity index, ratio of antiproliferative activity against mouse NIH/3T3 cells to antiproliferative activity against human MCF7 cells.
A short description of series [16]: Selectivity index, ratio of antiproliferative activity against human MCF10A cells to antiproliferative activity against human DMS53 cells. Also on record: species or system MCF-10A.
Series [17] in a line: Selectivity index, ratio of antiproliferative activity against mouse NIH/3T3 cells to antiproliferative activity against mouse B16F10 cells. Set-up: species or system B16-F10.
A further series relates to HeLa. The series is described as follows: Antiproliferative activity against human HeLa cells assessed as inhibition of cell proliferation at 10 uM incubated for 72 hrs by Cell-titer-Glo cell viability assay. In kind it is functional.
Series [18] can be described thus: Antiproliferative activity against human WI38 cells assessed as inhibition of cell proliferation at 10 uM incubated for 72 hrs by Cell-titer-Glo cell viability assay. The class given is cell-based, WI-38.
Series [19] in a line: Antiproliferative activity against mouse NIH/3T3 cells assessed as inhibition of cell proliferation at 10 uM incubated for 72 hrs by Cell-titer-Glo cell viability assay. In kind it is cell-based, NIH3T3.
Series [20] is described as follows: Selectivity index, ratio of antiproliferative activity against human WI38 cells to antiproliferative activity against human HeLa cells.
Series [21] in a line: Selectivity index, ratio of antiproliferative activity against human MCF10A cells to antiproliferative activity against human MCF7 cells. Set-up: species or system MCF-10A.
The subject of a further series is MCF7. The series is described as follows: Antiproliferative activity against human MCF7 cells assessed as inhibition of cell proliferation at 10 uM incubated for 72 hrs by Cell-titer-Glo cell viability assay. In kind it is functional. As to conditions: MCF7, 72 h.
Series [22] is described as follows: Antiproliferative activity against human DMS53 cells assessed as inhibition of cell proliferation at 10 uM incubated for 72 hrs by Cell-titer-Glo cell viability assay. In kind it is functional. As to conditions: DMS-53, 72 h.
Series [23] can be described thus: Selectivity index, ratio of antiproliferative activity against human WI38 cells to antiproliferative activity against human Y79 cells. Also on record: species or system WI-38.
For another series, the system named is Y79. The series is described as follows: Antiproliferative activity against human Y79 cells assessed as inhibition of cell proliferation at 10 uM incubated for 72 hrs by Cell-titer-Glo cell viability assay. The class given is functional. As to conditions: Y79, 72 h.
Series [24] in a line: Selectivity index, ratio of antiproliferative activity against mouse NIH/3T3 cells to antiproliferative activity against human HeLa cells.
The nature of series [25]: Selectivity index, ratio of antiproliferative activity against human MCF10A cells to antiproliferative activity against human Y79 cells. Set-up: species or system MCF-10A.
The nature of series [26]: Selectivity index, ratio of antiproliferative activity against human MCF10A cells to antiproliferative activity against mouse B16F10 cells. Set-up: species or system MCF-10A.
The nature of series [27]: Selectivity index, ratio of antiproliferative activity against mouse NIH/3T3 cells to antiproliferative activity against human Y79 cells.
Series [28] is described as follows: Selectivity index, ratio of antiproliferative activity against human WI38 cells to antiproliferative activity against human MCF7 cells.
Series [29] is described as follows: Selectivity index, ratio of antiproliferative activity against human MCF10A cells to antiproliferative activity against human HeLa cells.
Series [30] can be described thus: Selectivity index, ratio of antiproliferative activity against mouse NIH/3T3 cells to antiproliferative activity against human DMS53 cells. Also on record: species or system DMS-53.
A short description of series [31]: Antiproliferative activity against human WERI cells assessed as inhibition of cell proliferation by propidium iodide uptake based fluoroskan microplate reader analysis. The class given is functional.
Series [32] has as its target Transient receptor potential cation channel subfamily M member 7 (Mus musculus, UniProt Q923J1). In words: Inhibition of N-terminal Flag-tagged mouse TRPM7 expressed in HEK293T cells assessed as reduction in whole cell currents by whole-cell patch clamp assay. In kind it is cell-based, HEK-293T. On the technique in general: The patch-clamp technique gives a direct electrical read-out from membranes.

Transient receptor potential cation channel subfamily M member 7, sequence (Q923J1 whole entry): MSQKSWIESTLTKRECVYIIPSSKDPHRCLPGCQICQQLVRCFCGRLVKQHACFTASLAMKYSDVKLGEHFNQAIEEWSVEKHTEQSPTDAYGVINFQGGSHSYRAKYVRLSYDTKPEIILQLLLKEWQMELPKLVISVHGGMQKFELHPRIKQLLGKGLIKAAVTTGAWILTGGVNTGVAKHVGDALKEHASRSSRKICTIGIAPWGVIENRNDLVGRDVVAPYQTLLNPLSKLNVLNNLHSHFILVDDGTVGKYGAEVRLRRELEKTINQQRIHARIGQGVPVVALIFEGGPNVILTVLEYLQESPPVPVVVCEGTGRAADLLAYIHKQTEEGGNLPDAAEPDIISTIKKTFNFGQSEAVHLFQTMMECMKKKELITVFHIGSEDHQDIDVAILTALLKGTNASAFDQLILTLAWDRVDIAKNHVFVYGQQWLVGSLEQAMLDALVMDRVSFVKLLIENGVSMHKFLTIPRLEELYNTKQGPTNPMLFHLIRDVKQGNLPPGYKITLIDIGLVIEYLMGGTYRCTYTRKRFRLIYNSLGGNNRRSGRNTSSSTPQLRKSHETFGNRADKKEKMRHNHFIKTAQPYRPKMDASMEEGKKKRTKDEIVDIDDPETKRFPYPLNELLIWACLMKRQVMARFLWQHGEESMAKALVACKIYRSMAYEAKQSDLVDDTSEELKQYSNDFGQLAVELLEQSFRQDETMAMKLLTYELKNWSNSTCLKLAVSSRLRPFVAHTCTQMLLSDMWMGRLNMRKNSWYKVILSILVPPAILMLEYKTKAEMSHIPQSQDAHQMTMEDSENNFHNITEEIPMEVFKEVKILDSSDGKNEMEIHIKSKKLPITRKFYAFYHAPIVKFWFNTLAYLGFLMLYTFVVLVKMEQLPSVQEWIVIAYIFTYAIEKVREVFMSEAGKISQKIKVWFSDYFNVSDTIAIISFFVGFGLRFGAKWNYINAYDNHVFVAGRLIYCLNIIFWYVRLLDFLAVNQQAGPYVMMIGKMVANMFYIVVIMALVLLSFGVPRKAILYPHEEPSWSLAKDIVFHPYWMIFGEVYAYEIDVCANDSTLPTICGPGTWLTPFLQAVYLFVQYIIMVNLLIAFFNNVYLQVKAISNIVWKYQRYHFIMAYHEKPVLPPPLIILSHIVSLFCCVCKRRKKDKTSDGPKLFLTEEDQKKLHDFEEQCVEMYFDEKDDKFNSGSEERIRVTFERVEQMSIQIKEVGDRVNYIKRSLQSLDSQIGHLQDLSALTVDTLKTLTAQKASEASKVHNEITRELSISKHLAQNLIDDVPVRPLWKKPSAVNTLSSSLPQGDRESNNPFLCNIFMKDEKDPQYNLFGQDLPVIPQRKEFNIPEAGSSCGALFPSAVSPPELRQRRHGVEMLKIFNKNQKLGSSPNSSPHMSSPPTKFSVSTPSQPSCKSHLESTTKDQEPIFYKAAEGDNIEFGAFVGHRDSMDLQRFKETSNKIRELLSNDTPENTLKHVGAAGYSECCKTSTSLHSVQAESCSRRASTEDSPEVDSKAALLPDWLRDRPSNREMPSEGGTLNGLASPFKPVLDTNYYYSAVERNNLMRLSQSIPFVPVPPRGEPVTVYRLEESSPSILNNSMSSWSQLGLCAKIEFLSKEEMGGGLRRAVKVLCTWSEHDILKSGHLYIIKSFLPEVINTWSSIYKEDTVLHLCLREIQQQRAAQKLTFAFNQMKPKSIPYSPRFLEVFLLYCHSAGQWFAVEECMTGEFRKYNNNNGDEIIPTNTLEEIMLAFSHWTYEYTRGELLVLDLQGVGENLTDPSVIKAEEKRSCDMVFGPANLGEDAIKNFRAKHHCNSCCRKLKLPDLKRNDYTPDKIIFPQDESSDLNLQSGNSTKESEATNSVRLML

For orientation: inhibition means the drop in the measured response relative to a control, in per cent. Turning to `Cc1ccc2c(c1)CCCN2C(=O)c1[nH]c2ccccc2c1Cl`, the Ratio stood at 0.76 in series [1] and 0.77 in series [4]. For the same molecule, in series [2], the inhibition at 10 µM was 33%. For the same molecule, in [3], the inhibition at 5 µM came out at 9%.

As to `Cc1c(Cc2ccc(Cl)c(Cl)c2)c(=O)oc2cc(O)ccc12`, the result in the series with Cerebral cortex neuron, in the series listed under Rattus norvegicus [5], in the series filed under Rattus norvegicus [6], with Rattus norvegicus [7], in the series on Rattus norvegicus [8] and with Rattus norvegicus [10] was Active. In addition, the “fold change (FC)” value in the series listed under Rattus norvegicus [9] was determined as 2.

One may read the IC50 as the concentration that inhibits the measured activity by half. Consider `COc1ccc(C(=O)c2sc3ccccc3c2Cl)cc1`, for which the inhibition at 10 µM (in [11]; with HeLa; in the series with MCF7; in series [22]; in the series on Y79) was more than 40% each time. Further, the figures for the Ratio in series [1] and in series [4] were 0.063 and 0.305, respectively. For the same molecule, the “Selectivity Index” value in series [12], in series [13], in [15], in series [16], in series [17] and in series [20] was 20 throughout. Besides, the “Selectivity Index” value in series [21], in [23], in [24], in [25], in series [26] and in series [27] was 20 in each case. In addition, the “Selectivity Index” value in series [28], in series [29] and in series [30] was 20 throughout. Also, the inhibition at 72 h, 10 µM in [14], in [18] and in series [19] was more than 40% each time. Also, the IC50 in series [31] amounted to 4 µM.

For the molecule `COc1ccc2c(c1)CCN=C2c1sc2ccccc2c1Cl`, the inhibition at 10 µM was more than 40% in [11]; 42% in [2]; more than 40% in the series on HeLa; more than 40% in the series with MCF7; more than 40% in series [22]; more than 40% with Y79. The Ratio came out at 0.035 in [1] and 0.06 in series [4]. The “Selectivity Index” value in [12], in [13], in [15], in series [16], in [17] and in series [20] was 20 throughout. Further, the “Selectivity Index” value in [21], in [23], in [24], in [25], in [26] and in [27] was 20 throughout. Also, the “Selectivity Index” value in series [28], in [29] and in series [30] was 20 each time. The inhibition at 72 h, 10 µM in [14], in series [18] and in series [19] was more than 40% throughout. Moreover, the inhibition at 5 µM in series [3] turned out to be 18%. The IC50 in [32] worked out at 5 µM; in [31], 1.19 µM.
